Consider one molecule from ChEMBL document CHEMBL1158356, “Synthesis, anti-tuberculosis activity and 3D-QSAR study of amino acid conjugates of 4-(adamantan-1-yl) group containing quinolines” (Eur J Med Chem, 2009).

Experiment [1] relates to Mycobacterium tuberculosis. The experiment is described as follows: Antimycobacterial activity against isoniazid-resistant Mycobacterium tuberculosis H37Rv ATCC 27294 at 3.125 ug/ml. The format is functional.
Experiment [2] has as its system Mycobacterium tuberculosis. Kind of experiment: Antimycobacterial activity against isoniazid-resistant Mycobacterium tuberculosis H37Rv ATCC 27294 at 1 ug/ml. The format is functional.

Take `N=C(N)NCCC[C@H](NC(=O)c1cc(C23CC4CC(CC(C4)C2)C3)c2ccccc2n1)C(=O)NN`: in experiment [1], the inhibition – broadly, the share of the control response that was lost under treatment – at 3.125 µg/mL was 99%. The same molecule had an inhibition at 1 µg/mL in experiment [2] of 60%.
